Source: PubChem BioAssay (NCI)
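Five compound concentrations were applied to cells in 96-well plates for 48 hours; endpoints were derived by simple linear interpolation of the resulting dose-response curve. GI50 = concentration required for 50% inhibition of growth. At the TGI there is no net growth.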

Tests used:
Assay in all cases: growth of human tumour cells (NCI), 48 h
CAKI-1 renal = tested on: CAKI-1 renal
A498 renal = tested on: A498 renal
OVCAR-3 ovarian = tested on: OVCAR-3 ovarian
SNB-75 CNS = tested on: SNB-75 CNS
MCF7 breast = tested on: MCF7 breast
CCRF-CEM leukemia = tested on: CCRF-CEM leukemia
HCC-2998 colon = tested on: HCC-2998 colon
OVCAR-4 ovarian = tested on: OVCAR-4 ovarian
SF-268 CNS = tested on: SF-268 CNS
COLO 205 colon = tested on: COLO 205 colon
KM12 colon = tested on: KM12 colon
OVCAR-5 ovarian = tested on: OVCAR-5 ovarian
HL-60(TB) leukemia = tested on: HL-60(TB) leukemia
HT29 colon = tested on: HT29 colon
HS 578T breast = tested on: HS 578T breast
HOP-62 NSCLC = tested on: HOP-62 NSCLC
MALME-3M melanoma = tested on: MALME-3M melanoma
SR leukemia = tested on: SR leukemia
SNB-19 CNS = tested on: SNB-19 CNS
UO-31 renal = tested on: UO-31 renal
A549 NSCLC = tested on: A549 NSCLC
U251 CNS = tested on: U251 CNS
SF-539 CNS = tested on: SF-539 CNS
TK-10 renal = tested on: TK-10 renal
UACC-257 melanoma = tested on: UACC-257 melanoma
SW-620 colon = tested on: SW-620 colon
M14 melanoma = tested on: M14 melanoma
ACHN renal = tested on: ACHN renal
MDA-MB-435 = tested on: MDA-MB-435
K-562 leukemia = tested on: K-562 leukemia
RXF 393 renal = tested on: RXF 393 renal
SK-MEL-28 melanoma = tested on: SK-MEL-28 melanoma
HCT-116 colon = tested on: HCT-116 colon
NCI/ADR-RES ovarian = tested on: NCI/ADR-RES ovarian
OVCAR-8 ovarian = tested on: OVCAR-8 ovarian
MDA-MB-231 breast = tested on: MDA-MB-231 breast
SK-MEL-2 melanoma = tested on: SK-MEL-2 melanoma
PC-3 prostate = tested on: PC-3 prostate
SN12C renal = tested on: SN12C renal
MDA-MB-468 breast = tested on: MDA-MB-468 breast
SK-MEL-5 melanoma = tested on: SK-MEL-5 melanoma
NCI-H460 lung = tested on: NCI-H460 lung
SF-295 CNS = tested on: SF-295 CNS
DU-145 prostate = tested on: DU-145 prostate
T-47D breast = tested on: T-47D breast
EKVX NSCLC = tested on: EKVX NSCLC
NCI-H226 lung = tested on: NCI-H226 lung
LOX IMVI melanoma = tested on: LOX IMVI melanoma
MOLT-4 leukemia = tested on: MOLT-4 leukemia
UACC-62 melanoma = tested on: UACC-62 melanoma
RPMI-8226 leukemia = tested on: RPMI-8226 leukemia
IGROV1 ovarian = tested on: IGROV1 ovarian
NCI-H23 lung = tested on: NCI-H23 lung
SK-OV-3 ovarian = tested on: SK-OV-3 ovarian
HOP-92 NSCLC = tested on: HOP-92 NSCLC
HCT-15 colon = tested on: HCT-15 colon
NCI-H522 lung = tested on: NCI-H522 lung

COc1ccc(-c2nc3ccc(-c4nnc(SCC(=O)Nc5ccc(/C(C)=N\O)cc5)o4)cc3[nH]2)cc1
GI50 (CAKI-1 renal): 5.93 µM
TGI (CAKI-1 renal): 25 µM
GI50 (A498 renal): 22.7 µM
TGI (A498 renal): 37.2 µM
GI50 (OVCAR-3 ovarian): 12.7 µM
TGI (OVCAR-3 ovarian): 38.1 µM
GI50 (SNB-75 CNS): 2.8 µM
TGI (SNB-75 CNS): 14.9 µM
GI50 (MCF7 breast): 8.61 µM
TGI (MCF7 breast): 30.9 µM
GI50 (CCRF-CEM leukemia): 7.22 µM
TGI (CCRF-CEM leukemia): > 100 µM
GI50 (HCC-2998 colon): 50.8 µM
TGI (HCC-2998 colon): > 100 µM
GI50 (OVCAR-4 ovarian): 20.9 µM
TGI (OVCAR-4 ovarian): 91.7 µM
GI50 (SF-268 CNS): 4.38 µM
TGI (SF-268 CNS): 23.1 µM
GI50 (COLO 205 colon): 26.2 µM
TGI (COLO 205 colon): > 100 µM
GI50 (KM12 colon): 10.8 µM
TGI (KM12 colon): > 100 µM
GI50 (OVCAR-5 ovarian): 19.9 µM
TGI (OVCAR-5 ovarian): 41 µM
GI50 (HL-60(TB) leukemia): 19.5 µM
TGI (HL-60(TB) leukemia): > 100 µM
GI50 (HT29 colon): 13.8 µM
TGI (HT29 colon): 35.6 µM
GI50 (HS 578T breast): 2.75 µM
TGI (HS 578T breast): 8.15 µM
GI50 (HOP-62 NSCLC): 22.9 µM
TGI (HOP-62 NSCLC): > 100 µM
GI50 (MALME-3M melanoma): 1.69 µM
TGI (MALME-3M melanoma): 3.95 µM
GI50 (SR leukemia): > 100 µM
TGI (SR leukemia): > 100 µM
GI50 (SNB-19 CNS): 13.1 µM
TGI (SNB-19 CNS): 28.3 µM
GI50 (UO-31 renal): 33.5 µM
TGI (UO-31 renal): > 100 µM
GI50 (A549 NSCLC): 14.1 µM
TGI (A549 NSCLC): 35.6 µM
GI50 (U251 CNS): 4.3 µM
TGI (U251 CNS): 20.4 µM
GI50 (SF-539 CNS): 2.15 µM
TGI (SF-539 CNS): 6.35 µM
GI50 (TK-10 renal): 19.8 µM
TGI (TK-10 renal): 37.5 µM
GI50 (UACC-257 melanoma): 4.31 µM
TGI (UACC-257 melanoma): 17.2 µM
GI50 (SW-620 colon): 26.1 µM
TGI (SW-620 colon): 87.6 µM
GI50 (M14 melanoma): 3.05 µM
TGI (M14 melanoma): > 100 µM
GI50 (ACHN renal): 13 µM
TGI (ACHN renal): 35.2 µM
GI50 (MDA-MB-435): 4 µM
TGI (MDA-MB-435): 18.1 µM
GI50 (K-562 leukemia): 3.68 µM
TGI (K-562 leukemia): > 100 µM
GI50 (RXF 393 renal): 2.03 µM
TGI (RXF 393 renal): 5.18 µM
GI50 (SK-MEL-28 melanoma): 2.05 µM
TGI (SK-MEL-28 melanoma): 4.03 µM
GI50 (HCT-116 colon): 3.31 µM
TGI (HCT-116 colon): > 100 µM
GI50 (NCI/ADR-RES ovarian): > 100 µM
TGI (NCI/ADR-RES ovarian): > 100 µM
GI50 (OVCAR-8 ovarian): 7.7 µM
TGI (OVCAR-8 ovarian): 44.6 µM
GI50 (MDA-MB-231 breast): 3.83 µM
TGI (MDA-MB-231 breast): 13.4 µM
GI50 (SK-MEL-2 melanoma): 5.27 µM
TGI (SK-MEL-2 melanoma): 17.8 µM
GI50 (PC-3 prostate): 3.05 µM
TGI (PC-3 prostate): 10.8 µM
GI50 (SN12C renal): 11.6 µM
TGI (SN12C renal): 28 µM
GI50 (MDA-MB-468 breast): 6.35 µM
TGI (MDA-MB-468 breast): 19.3 µM
GI50 (SK-MEL-5 melanoma): 1.68 µM
TGI (SK-MEL-5 melanoma): 3.66 µM
GI50 (NCI-H460 lung): 15 µM
TGI (NCI-H460 lung): 53 µM
GI50 (SF-295 CNS): 14.2 µM
TGI (SF-295 CNS): 32.8 µM
GI50 (DU-145 prostate): 14.8 µM
TGI (DU-145 prostate): 31.8 µM
GI50 (T-47D breast): 10 µM
TGI (T-47D breast): 34.8 µM
GI50 (EKVX NSCLC): 17.1 µM
TGI (EKVX NSCLC): 48.8 µM
GI50 (NCI-H226 lung): 11.7 µM
TGI (NCI-H226 lung): 33.2 µM
GI50 (LOX IMVI melanoma): 5.69 µM
TGI (LOX IMVI melanoma): 19.4 µM
GI50 (MOLT-4 leukemia): 9.01 µM
TGI (MOLT-4 leukemia): > 100 µM
GI50 (UACC-62 melanoma): 3.2 µM
TGI (UACC-62 melanoma): 12 µM
GI50 (RPMI-8226 leukemia): 4 µM
TGI (RPMI-8226 leukemia): > 100 µM
GI50 (IGROV1 ovarian): 12 µM
TGI (IGROV1 ovarian): 24.3 µM
GI50 (NCI-H23 lung): 11 µM
TGI (NCI-H23 lung): 33.9 µM
GI50 (SK-OV-3 ovarian): 12.2 µM
TGI (SK-OV-3 ovarian): 28.8 µM
GI50 (HOP-92 NSCLC): 4.14 µM
TGI (HOP-92 NSCLC): 19.7 µM
GI50 (HCT-15 colon): > 100 µM
TGI (HCT-15 colon): > 100 µM
GI50 (NCI-H522 lung): 6.37 µM
TGI (NCI-H522 lung): 23 µM
